From US8410302B2, “Methoxyimino compounds and fungicide composition comprising same” (Kyung Nong Corporation, priority 2007, dated 2013)

Columns and labels:
[1] = tested on: Pyricularia oryzae Carvara KA301; experiment: whole plant or invertebrate; type: in vivo; settings: for pest or weed control at 2 ppm / pest or weed control at 10 ppm / pest or weed control at 50 ppm / pest or weed control at 100 ppm: Pyricularia oryzae, read-out: RCB control value (C.V.); for RCB control value (C.V.): rice blast
[2] = tested on: Botrytis cinerae; experiment: Fungicidal activity against cucumber gray mold rot (CGM) disease, control value; type: in vivo; settings: for pest or weed control at 100 ppm / CGM control value (C.V.): 100 ppm; for CGM control value (C.V.): cucumber gray mold rot
[3] = tested on: Phytophthora infestans; experiment: whole plant or invertebrate; type: in vivo; settings: for pest or weed control at 2 ppm / pest or weed control at 10 ppm / pest or weed control at 50 ppm / pest or weed control at 100 ppm: Phytophthora infestans, in Solanum lycopersicum, read-out: TLB control value (C.V.); for TLB control value (C.V.): tomato late blight
[4] = tested on: Erysiphae graminis; experiment: Fungicidal activity against barley powdery mildew (BPM) disease, control value; type: in vivo; settings: for pest or weed control at 2 ppm / pest or weed control at 10 ppm / pest or weed control at 50 ppm / pest or weed control at 100 ppm: 168 h, read-out: BPM control value (C.V.); for BPM control value (C.V.): barley powdery mildew
[5] = tested on: Puccinia recondita; experiment: Fungicidal activity against wheat leaf rust (WLR) disease, control value; type: in vivo; settings: for pest or weed control at 2 ppm / pest or weed control at 10 ppm / pest or weed control at 50 ppm / pest or weed control at 100 ppm: Puccinia recondita, read-out: WLR control value (C.V.); for WLR control value (C.V.): wheat leaf rust
[6] = tested on: Rhizoctonia solani AG-1; experiment: Fungicidal activity against rice sheath blight (RSB) disease, control value; settings: for pest or weed control at 2 ppm / pest or weed control at 10 ppm / pest or weed control at 50 ppm / pest or weed control at 100 ppm: Rhizoctonia solani, AG1, in Oryza sativa, read-out: RSB control value (C.V.); for RSB control value (C.V.): 100 ppm, rice sheath blight
[7] = Botrytis, read-out: CGM control value (C.V.)

SMILES | pest or weed control at 2 ppm [1] | pest or weed control at 10 ppm [1] | pest or weed control at 50 ppm [1] | pest or weed control at 100 ppm [1] | pest or weed control at 100 ppm [2, 7] | pest or weed control at 2 ppm [3] | pest or weed control at 10 ppm [3] | pest or weed control at 50 ppm [3] | pest or weed control at 100 ppm [3] | pest or weed control at 2 ppm [4] | pest or weed control at 10 ppm [4] | pest or weed control at 50 ppm ([4]; 50 ppm) | pest or weed control at 100 ppm ([4]; 100 ppm) | pest or weed control at 2 ppm ([5]; 2 ppm) | pest or weed control at 10 ppm ([5]; 10 ppm) | pest or weed control at 50 ppm ([5]; 50 ppm) | pest or weed control at 100 ppm ([5]; 100 ppm) | pest or weed control at 2 ppm [6] | pest or weed control at 10 ppm [6] | pest or weed control at 50 ppm [6] | other results
CNC(=O)/C(=N/OC)c1ccccc1COc1ccc(C=C(Cl)Cl)c(Cl)c1 [Example 58, (E)-2-(2-((3-chloro-4-(2,2-dichlorovinyl)phenoxy)methyl)phenyl)-2-methoxyimino-N-methylacetamide] | 100% | 100% | 100% | 100% | 35% | 99% | 100% | 100% | 100% | 100% | 100% | 100% | 100% | 100% | 100% | 100% | 100% | 90% | 100% | 100% | pest or weed control at 100 ppm [6]: 100%
CO/N=C(/C(=O)OC)c1ccccc1COc1ccc(C=C(Br)Br)c(Cl)c1 [Example 81, methyl-(E)-2-(2-((4-(2,2-dibromovinyl)-3-chlorophenoxy)methyl)phenyl)-2-methoxyiminoacetate] | 70% | 90% | 100% | 100% | 60% | 60% | 90% | 98% | 100% | 98% | 100% | 100% | 100% | 95% | 100% | 100% | 100% | 55% | 98% | 100% | pest or weed control at 100 ppm [6]: 100%
CO/N=C(/C(=O)OC)c1ccccc1COc1cc(Br)ccc1C=C(Cl)Cl [Example 61, methyl-(E)-2-(2-((5-bromo-2-(2,2-dichlorovinyl)phenoxy)methyl)phenyl)-2-methoxyiminoacetate] | 99% | 100% | 100% | 100% | 85% | 99% | 100% | 100% | 100% | 100% | 100% | 100% | 100% | 100% | 100% | 100% | 100% | 95% | 100% | 100% | pest or weed control at 50 ppm ([2]; Botrytis, 50 ppm, read-out: CGM control value (C.V.)): 40%; pest or weed control at 100 ppm [6]: 100%
CO/N=C(/C(=O)OC)c1ccccc1CON=C(C)c1cccc(C=C(F)Cl)c1 [Example 31, methyl-(E)-2-[[[[[2-[3-(2-chloro-2-fluorovinyl)phenyl](1-methyl)methylidene]amino]oxy]methyl]phenyl]-2-methoxyiminoacetate] | – | – | – | – | – | – | – | – | – | – | – | – | – | – | – | – | – | – | – | – | RCB control value (C.V.) ([1]; 50 ppm): 70%; RCB control value (C.V.) ([1]; 100 ppm): 95%; CGM control value (C.V.) [2]: 43%; TLB control value (C.V.) ([3]; 100 ppm): 60%; BPM control value (C.V.) ([4]; 50 ppm): 60%; BPM control value (C.V.) ([4]; 100 ppm): 90%; WLR control value (C.V.) ([5]; 10 ppm): 40%; WLR control value (C.V.) ([5]; 50 ppm): 90%; WLR control value (C.V.) ([5]; 100 ppm): 100%; RSB control value (C.V.) [6]: 30%
CNC(=O)/C(=N/OC)c1ccccc1CON=C(C)c1ccc(C=C(F)F)cc1 [Example 30, (E)-2-[[[[[2-[4-(2,2-difluorovinyl)phenyl](1-methyl)methylidene]amino]oxy]methyl]phenyl]-2-methoxyimino-N-methylacetamide] | – | – | – | – | – | – | – | – | – | – | – | – | – | – | – | – | – | – | – | – | RCB control value (C.V.) ([1]; 2 ppm): 100%; RCB control value (C.V.) ([1]; 10 ppm): 100%; RCB control value (C.V.) ([1]; 50 ppm): 100%; RCB control value (C.V.) ([1]; 100 ppm): 100%; CGM control value (C.V.) [2]: 60%; TLB control value (C.V.) ([3]; 2 ppm): 100%; TLB control value (C.V.) ([3]; 10 ppm): 100%; TLB control value (C.V.) ([3]; 50 ppm): 100%; TLB control value (C.V.) ([3]; 100 ppm): 100%; BPM control value (C.V.) ([4]; 50 ppm): 60%; BPM control value (C.V.) ([4]; 100 ppm): 98%; WLR control value (C.V.) ([5]; 2 ppm): 90%; WLR control value (C.V.) ([5]; 10 ppm): 100%; WLR control value (C.V.) ([5]; 50 ppm): 100%; WLR control value (C.V.) ([5]; 100 ppm): 100%; RSB control value (C.V.) [6]: 45%
